Key:
Assay in all cases: KINOMEscan competition binding
Details in all cases: compound 10.0 µM
TLK2 (human) = TLK2 (human) (UniProt Q86UE8)
NEK2 (human) = NEK2 (human) (UniProt P51955)
PRKD1 (human) = PRKD1 (human) (UniProt Q15139)
TNNI3K (human) = TNNI3K (human) (UniProt Q59H18)
TAOK3 (human) = TAOK3 (human) (UniProt Q9H2K8)
AAK1 (human) = AAK1 (human) (UniProt Q2M2I8)
STK32B (human) = STK32B (human) (UniProt Q9NY57)
MATK (human) = MATK (human) (UniProt P42679)
ANKK1 (human) = ANKK1 (human) (UniProt Q8NFD2)
ABL2 (human) = ABL2 (human) (UniProt P42684)
TAOK2 (human) = TAOK2 (human) (UniProt Q9UL54)
INSRR (human) = INSRR (human) (UniProt P14616)
DDR2 (human) = DDR2 (human) (UniProt Q16832)
MET (human) = MET (human) (UniProt P08581)
MERTK (human) = MERTK (human) (UniProt Q12866)
IRAK1 (human) = IRAK1 (human) (UniProt P51617)
MAPK14 (human) = MAPK14 (human) (UniProt Q16539)
SRMS (human) = SRMS (human) (UniProt Q9H3Y6)
[1] = test system: PIK3CA (human), P42336 [E542K]
MAP2K6 (human) = MAP2K6 (human) (UniProt P52564)
SRC (human) = SRC (human) (UniProt P12931)
TGFBR1 (human) = TGFBR1 (human) (UniProt P36897)
RIPK2 (human) = RIPK2 (human) (UniProt O43353)
EPHA5 (human) = EPHA5 (human) (UniProt P54756)
BMPR2 (human) = BMPR2 (human) (UniProt Q13873)
FYN (human) = FYN (human) (UniProt P06241)
TNIK (human) = TNIK (human) (UniProt Q9UKE5)
PIK3CD (human) = PIK3CD (human) (UniProt O00329)
SBK1 (human) = SBK1 (human) (UniProt Q52WX2)
DYRK1B (human) = DYRK1B (human) (UniProt Q9Y463)
MAP2K3 (human) = MAP2K3 (human) (UniProt P46734)
MARK4 (human) = MARK4 (human) (UniProt Q96L34)
GRK7 (human) = GRK7 (human) (UniProt Q8WTQ7)
MAP3K10 (human) = MAP3K10 (human) (UniProt Q02779)
STK38L (human) = STK38L (human) (UniProt Q9Y2H1)
PLK4 (human) = PLK4 (human) (UniProt O00444)
MAP3K5 (human) = MAP3K5 (human) (UniProt Q99683)
CASK (human) = CASK (human) (UniProt O14936)
DMPK (human) = DMPK (human) (UniProt Q09013)
RPS6KA6 KD2 (human) = RPS6KA6 KD2 (human) (UniProt Q9UK32)

Chain of BMPR2 (human) (Q13873 whole entry, looked up): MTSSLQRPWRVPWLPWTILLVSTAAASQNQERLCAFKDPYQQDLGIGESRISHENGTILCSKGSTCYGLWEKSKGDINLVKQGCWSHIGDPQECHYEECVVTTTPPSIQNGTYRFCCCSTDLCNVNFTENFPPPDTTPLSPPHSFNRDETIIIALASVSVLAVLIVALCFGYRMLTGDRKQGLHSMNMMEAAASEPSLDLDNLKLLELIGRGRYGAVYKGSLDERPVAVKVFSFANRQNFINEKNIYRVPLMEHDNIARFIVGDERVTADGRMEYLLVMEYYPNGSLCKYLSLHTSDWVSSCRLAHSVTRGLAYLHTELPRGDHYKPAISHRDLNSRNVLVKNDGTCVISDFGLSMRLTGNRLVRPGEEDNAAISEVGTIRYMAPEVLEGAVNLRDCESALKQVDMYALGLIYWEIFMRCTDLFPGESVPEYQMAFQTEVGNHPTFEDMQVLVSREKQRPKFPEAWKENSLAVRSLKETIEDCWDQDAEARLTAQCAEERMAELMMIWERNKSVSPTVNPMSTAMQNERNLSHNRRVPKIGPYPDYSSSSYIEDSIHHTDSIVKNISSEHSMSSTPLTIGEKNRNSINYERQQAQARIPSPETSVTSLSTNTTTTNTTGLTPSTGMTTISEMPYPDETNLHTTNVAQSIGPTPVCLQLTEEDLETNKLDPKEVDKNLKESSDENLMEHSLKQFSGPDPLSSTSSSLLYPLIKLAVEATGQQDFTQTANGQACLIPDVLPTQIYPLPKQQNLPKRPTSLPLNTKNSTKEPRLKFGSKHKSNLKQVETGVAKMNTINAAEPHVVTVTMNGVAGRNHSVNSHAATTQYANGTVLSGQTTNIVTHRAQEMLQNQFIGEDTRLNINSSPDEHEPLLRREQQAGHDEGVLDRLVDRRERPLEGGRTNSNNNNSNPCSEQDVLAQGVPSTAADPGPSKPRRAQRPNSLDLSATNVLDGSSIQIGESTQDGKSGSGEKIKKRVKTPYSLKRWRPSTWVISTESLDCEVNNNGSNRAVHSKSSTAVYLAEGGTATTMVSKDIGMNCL
Chain of EPHA5 (human) (P54756 whole entry, looked up): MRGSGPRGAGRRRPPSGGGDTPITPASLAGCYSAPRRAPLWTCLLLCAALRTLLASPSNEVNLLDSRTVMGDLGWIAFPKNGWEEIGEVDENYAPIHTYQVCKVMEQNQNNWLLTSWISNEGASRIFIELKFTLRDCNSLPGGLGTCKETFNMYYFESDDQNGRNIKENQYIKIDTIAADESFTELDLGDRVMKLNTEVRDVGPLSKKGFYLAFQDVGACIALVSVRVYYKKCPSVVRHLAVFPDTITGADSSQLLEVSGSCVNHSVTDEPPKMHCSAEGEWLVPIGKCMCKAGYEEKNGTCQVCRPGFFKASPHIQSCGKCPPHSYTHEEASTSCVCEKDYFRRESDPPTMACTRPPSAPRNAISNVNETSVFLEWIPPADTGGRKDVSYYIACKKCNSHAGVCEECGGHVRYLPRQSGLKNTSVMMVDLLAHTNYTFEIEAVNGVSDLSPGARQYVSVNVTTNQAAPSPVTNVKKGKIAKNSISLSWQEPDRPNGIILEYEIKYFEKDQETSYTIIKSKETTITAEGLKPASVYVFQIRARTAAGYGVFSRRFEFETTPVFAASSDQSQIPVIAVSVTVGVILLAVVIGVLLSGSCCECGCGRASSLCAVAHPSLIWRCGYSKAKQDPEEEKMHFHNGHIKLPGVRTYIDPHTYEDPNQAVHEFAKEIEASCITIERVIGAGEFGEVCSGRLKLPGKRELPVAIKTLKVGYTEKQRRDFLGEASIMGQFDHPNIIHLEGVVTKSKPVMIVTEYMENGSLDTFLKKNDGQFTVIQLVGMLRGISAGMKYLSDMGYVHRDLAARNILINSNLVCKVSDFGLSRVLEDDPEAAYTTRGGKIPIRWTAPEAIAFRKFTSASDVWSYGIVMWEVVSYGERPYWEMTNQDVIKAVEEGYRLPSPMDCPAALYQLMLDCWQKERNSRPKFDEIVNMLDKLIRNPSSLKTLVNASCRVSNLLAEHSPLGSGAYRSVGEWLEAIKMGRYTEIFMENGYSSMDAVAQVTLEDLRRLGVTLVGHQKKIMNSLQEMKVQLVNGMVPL
Chain of TGFBR1 (human) (P36897 whole entry, looked up): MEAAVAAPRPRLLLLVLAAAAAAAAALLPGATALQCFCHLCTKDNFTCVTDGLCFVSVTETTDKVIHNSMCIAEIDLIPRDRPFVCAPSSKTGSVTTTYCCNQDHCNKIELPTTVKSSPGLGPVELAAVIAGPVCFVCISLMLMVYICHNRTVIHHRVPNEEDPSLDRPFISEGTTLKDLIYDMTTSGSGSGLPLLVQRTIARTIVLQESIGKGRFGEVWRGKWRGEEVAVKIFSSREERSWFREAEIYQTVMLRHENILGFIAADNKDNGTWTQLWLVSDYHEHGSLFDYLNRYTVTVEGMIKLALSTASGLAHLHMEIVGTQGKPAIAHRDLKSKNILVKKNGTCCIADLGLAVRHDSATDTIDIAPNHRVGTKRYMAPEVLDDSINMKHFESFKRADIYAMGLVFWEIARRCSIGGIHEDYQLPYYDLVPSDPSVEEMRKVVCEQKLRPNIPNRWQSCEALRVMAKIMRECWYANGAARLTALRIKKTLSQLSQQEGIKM
Chain of AAK1 (human) (Q2M2I8 whole entry, looked up): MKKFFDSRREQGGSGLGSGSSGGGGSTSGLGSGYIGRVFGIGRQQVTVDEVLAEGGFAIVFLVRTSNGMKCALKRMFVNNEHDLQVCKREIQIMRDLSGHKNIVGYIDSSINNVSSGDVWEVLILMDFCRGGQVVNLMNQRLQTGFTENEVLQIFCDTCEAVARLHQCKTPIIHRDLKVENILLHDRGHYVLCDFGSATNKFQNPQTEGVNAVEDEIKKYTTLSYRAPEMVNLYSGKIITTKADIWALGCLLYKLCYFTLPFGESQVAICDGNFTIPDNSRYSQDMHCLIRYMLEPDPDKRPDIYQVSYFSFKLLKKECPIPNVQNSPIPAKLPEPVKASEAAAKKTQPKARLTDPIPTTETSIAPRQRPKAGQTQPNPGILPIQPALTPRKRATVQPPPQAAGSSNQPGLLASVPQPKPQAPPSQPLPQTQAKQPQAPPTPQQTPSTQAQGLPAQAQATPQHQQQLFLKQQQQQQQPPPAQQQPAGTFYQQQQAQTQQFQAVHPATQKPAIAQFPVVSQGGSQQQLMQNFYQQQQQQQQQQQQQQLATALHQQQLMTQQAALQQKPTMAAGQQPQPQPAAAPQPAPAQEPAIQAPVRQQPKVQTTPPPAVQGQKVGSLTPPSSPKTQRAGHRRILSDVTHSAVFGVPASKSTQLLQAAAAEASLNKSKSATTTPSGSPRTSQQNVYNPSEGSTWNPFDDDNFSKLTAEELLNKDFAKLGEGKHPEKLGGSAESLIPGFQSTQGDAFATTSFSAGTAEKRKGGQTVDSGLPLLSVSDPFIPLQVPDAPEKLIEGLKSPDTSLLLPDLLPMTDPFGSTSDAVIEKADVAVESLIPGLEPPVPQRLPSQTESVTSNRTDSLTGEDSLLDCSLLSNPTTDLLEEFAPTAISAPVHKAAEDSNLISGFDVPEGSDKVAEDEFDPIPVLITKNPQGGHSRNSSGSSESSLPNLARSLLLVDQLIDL
Chain of PLK4 (human) (O00444 whole entry, looked up): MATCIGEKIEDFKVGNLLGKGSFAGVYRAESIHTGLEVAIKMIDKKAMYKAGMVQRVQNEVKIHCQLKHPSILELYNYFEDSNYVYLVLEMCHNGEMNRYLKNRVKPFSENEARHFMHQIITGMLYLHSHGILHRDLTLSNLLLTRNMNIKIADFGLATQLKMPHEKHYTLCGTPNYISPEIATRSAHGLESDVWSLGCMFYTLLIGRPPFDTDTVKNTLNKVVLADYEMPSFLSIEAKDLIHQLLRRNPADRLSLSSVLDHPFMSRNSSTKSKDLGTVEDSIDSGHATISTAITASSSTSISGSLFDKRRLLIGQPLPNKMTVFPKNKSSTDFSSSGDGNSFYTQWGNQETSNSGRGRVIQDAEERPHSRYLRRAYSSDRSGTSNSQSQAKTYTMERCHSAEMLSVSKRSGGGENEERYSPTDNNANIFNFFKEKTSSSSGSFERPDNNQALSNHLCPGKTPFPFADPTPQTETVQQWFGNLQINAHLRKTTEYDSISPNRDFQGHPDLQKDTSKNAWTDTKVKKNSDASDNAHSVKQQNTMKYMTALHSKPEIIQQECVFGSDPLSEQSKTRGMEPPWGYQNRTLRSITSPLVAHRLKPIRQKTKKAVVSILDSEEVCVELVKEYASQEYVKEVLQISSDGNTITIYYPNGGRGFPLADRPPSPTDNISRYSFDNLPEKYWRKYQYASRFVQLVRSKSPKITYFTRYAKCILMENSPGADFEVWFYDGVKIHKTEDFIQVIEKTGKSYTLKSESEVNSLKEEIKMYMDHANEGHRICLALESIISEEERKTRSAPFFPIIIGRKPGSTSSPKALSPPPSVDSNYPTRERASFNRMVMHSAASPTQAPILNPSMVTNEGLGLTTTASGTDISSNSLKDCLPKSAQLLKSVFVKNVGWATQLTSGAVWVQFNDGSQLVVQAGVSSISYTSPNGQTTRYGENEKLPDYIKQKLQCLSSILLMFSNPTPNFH
Chain of GRK7 (human) (Q8WTQ7 whole entry, looked up): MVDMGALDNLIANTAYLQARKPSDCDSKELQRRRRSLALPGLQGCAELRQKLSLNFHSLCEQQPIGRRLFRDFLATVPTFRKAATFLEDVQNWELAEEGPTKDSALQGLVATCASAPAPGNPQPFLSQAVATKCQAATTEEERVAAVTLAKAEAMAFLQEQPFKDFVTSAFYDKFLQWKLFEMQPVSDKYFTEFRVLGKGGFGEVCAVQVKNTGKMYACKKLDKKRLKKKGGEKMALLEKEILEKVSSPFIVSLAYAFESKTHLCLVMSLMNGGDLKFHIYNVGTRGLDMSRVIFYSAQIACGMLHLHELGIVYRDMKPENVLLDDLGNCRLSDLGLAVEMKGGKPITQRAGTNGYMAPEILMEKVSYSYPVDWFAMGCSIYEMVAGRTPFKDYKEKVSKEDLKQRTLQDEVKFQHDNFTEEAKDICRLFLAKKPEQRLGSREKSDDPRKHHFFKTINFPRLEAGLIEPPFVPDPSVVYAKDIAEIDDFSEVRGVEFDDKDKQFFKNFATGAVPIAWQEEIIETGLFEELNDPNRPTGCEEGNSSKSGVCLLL

Row | Structure (SMILES) | kinase still bound, per cent of control (TLK2 (human)) | kinase still bound, per cent of control (NEK2 (human)) | kinase still bound, per cent of control (PRKD1 (human)) | kinase still bound, per cent of control (TNNI3K (human)) | kinase still bound, per cent of control (TAOK3 (human)) | kinase still bound, per cent of control (AAK1 (human)) | kinase still bound, per cent of control (STK32B (human)) | kinase still bound, per cent of control (MATK (human)) | kinase still bound, per cent of control (ANKK1 (human)) | kinase still bound, per cent of control (ABL2 (human)) | kinase still bound, per cent of control (TAOK2 (human)) | kinase still bound, per cent of control (INSRR (human)) | kinase still bound, per cent of control (DDR2 (human)) | kinase still bound, per cent of control (MET (human)) | kinase still bound, per cent of control (MERTK (human)) | kinase still bound, per cent of control (IRAK1 (human)) | kinase still bound, per cent of control (MAPK14 (human)) | kinase still bound, per cent of control (SRMS (human)) | kinase still bound, per cent of control [1] | kinase still bound, per cent of control (MAP2K6 (human)) | also measured
1 | N#Cc1cc(-c2ccnc(Nc3ccc(-n4cnc(-c5cccnc5)n4)cc3)n2)cc(N2CCOCC2)c1 | 65% | 94% | 66% | 80% | 28% | 5.4% | 100% | 62% | 55% | 67% | 37% | 68% | 100% | 24% | 57% | 9.3% | 100% | 62% | 100% | 41% | kinase still bound, per cent of control (SRC (human)): 38%; kinase still bound, per cent of control (TGFBR1 (human)): 73%; kinase still bound, per cent of control (RIPK2 (human)): 53%; kinase still bound, per cent of control (EPHA5 (human)): 91%; kinase still bound, per cent of control (BMPR2 (human)): 72%; kinase still bound, per cent of control (FYN (human)): 83%; kinase still bound, per cent of control (TNIK (human)): 26%; kinase still bound, per cent of control (PIK3CD (human)): 100%; kinase still bound, per cent of control (SBK1 (human)): 100%; kinase still bound, per cent of control (DYRK1B (human)): 10%; kinase still bound, per cent of control (MAP2K3 (human)): 18%; kinase still bound, per cent of control (MARK4 (human)): 78%; kinase still bound, per cent of control (GRK7 (human)): 70%; kinase still bound, per cent of control (MAP3K10 (human)): 72%; kinase still bound, per cent of control (STK38L (human)): 100%; kinase still bound, per cent of control (PLK4 (human)): 22%; kinase still bound, per cent of control (MAP3K5 (human)): 100%; kinase still bound, per cent of control (CASK (human)): 78%; kinase still bound, per cent of control (DMPK (human)): 85%; kinase still bound, per cent of control (RPS6KA6 KD2 (human)): 88%
2 | O=c1[nH]c2ccccc2n1C1CCN(Cc2ccc(-c3nc4cc5[nH]cnc5cc4nc3-c3ccccc3)cc2)CC1 | 100% | 100% | 86% | 100% | 84% | 100% | 88% | 70% | 73% | 100% | 85% | 100% | 76% | 39% | 95% | 76% | 88% | 65% | 58% | 100% | kinase still bound, per cent of control (SRC (human)): 81%; kinase still bound, per cent of control (TGFBR1 (human)): 100%; kinase still bound, per cent of control (RIPK2 (human)): 64%; kinase still bound, per cent of control (EPHA5 (human)): 100%; kinase still bound, per cent of control (BMPR2 (human)): 100%; kinase still bound, per cent of control (FYN (human)): 100%; kinase still bound, per cent of control (TNIK (human)): 97%; kinase still bound, per cent of control (PIK3CD (human)): 51%; kinase still bound, per cent of control (SBK1 (human)): 92%; kinase still bound, per cent of control (DYRK1B (human)): 88%; kinase still bound, per cent of control (MAP2K3 (human)): 100%; kinase still bound, per cent of control (MARK4 (human)): 99%; kinase still bound, per cent of control (GRK7 (human)): 98%; kinase still bound, per cent of control (MAP3K10 (human)): 84%; kinase still bound, per cent of control (STK38L (human)): 82%; kinase still bound, per cent of control (PLK4 (human)): 60%; kinase still bound, per cent of control (MAP3K5 (human)): 83%; kinase still bound, per cent of control (CASK (human)): 79%; kinase still bound, per cent of control (DMPK (human)): 98%; kinase still bound, per cent of control (RPS6KA6 KD2 (human)): 100%
3 | CCN1CCN(Cc2ccc(NC(=O)c3ccc(C)c(/C=C/c4cnc5[nH]ccc5c4OC)c3)cc2C(F)(F)F)CC1 | 93% | 100% | 3.5% | 1% | 0% | 26% | 100% | 100% | 5.7% | 0% | 0.5% | 100% | 9% | 40% | 9.2% | 26% | 0% | 0.7% | 100% | 79% | kinase still bound, per cent of control (SRC (human)): 0.15%; kinase still bound, per cent of control (TGFBR1 (human)): 100%; kinase still bound, per cent of control (RIPK2 (human)): 1.8%; kinase still bound, per cent of control (EPHA5 (human)): 3.6%; kinase still bound, per cent of control (BMPR2 (human)): 6.6%; kinase still bound, per cent of control (FYN (human)): 1.2%; kinase still bound, per cent of control (TNIK (human)): 3.2%; kinase still bound, per cent of control (PIK3CD (human)): 78%; kinase still bound, per cent of control (SBK1 (human)): 57%; kinase still bound, per cent of control (DYRK1B (human)): 27%; kinase still bound, per cent of control (MAP2K3 (human)): 68%; kinase still bound, per cent of control (MARK4 (human)): 100%; kinase still bound, per cent of control (GRK7 (human)): 77%; kinase still bound, per cent of control (MAP3K10 (human)): 20%; kinase still bound, per cent of control (STK38L (human)): 35%; kinase still bound, per cent of control (PLK4 (human)): 59%; kinase still bound, per cent of control (MAP3K5 (human)): 35%; kinase still bound, per cent of control (CASK (human)): 77%; kinase still bound, per cent of control (DMPK (human)): 57%; kinase still bound, per cent of control (RPS6KA6 KD2 (human)): 15%

From the kinase profiling compilation of Christmann-Franck et al. (2016)
